Laboratory results from US20140187548A1, “6 SUBSTITUTED IMIDAZOPYRAZINES FOR USE AS MPS-1 AND TKK INHIBITORS IN THE TREATMENT OF HYPERPROLIFERATIVE DISORDERS” (BAYER INTELLECTUAL PROPERTY GMBH, priority 2010, published 2014).

molecular target: T1, human kinase Mps-1 (Homo sapiens, UniProt P33981); assay: Mps-1 kinase assay (TR-FRET); format: biochemical; conditions: N-terminally GST-tagged human full length recombinant Mps-1; 10 μM ATP; 1 μM peptide substrate; 15 min pre-incubation; 60 min at 22° C.
T1 construct: N-terminally GST-tagged human full length recombinant Mps-1 kinase; GST (N); purchased Invitrogen, Karslruhe, Germany PV4071
T1 sequence (P33981 1-857): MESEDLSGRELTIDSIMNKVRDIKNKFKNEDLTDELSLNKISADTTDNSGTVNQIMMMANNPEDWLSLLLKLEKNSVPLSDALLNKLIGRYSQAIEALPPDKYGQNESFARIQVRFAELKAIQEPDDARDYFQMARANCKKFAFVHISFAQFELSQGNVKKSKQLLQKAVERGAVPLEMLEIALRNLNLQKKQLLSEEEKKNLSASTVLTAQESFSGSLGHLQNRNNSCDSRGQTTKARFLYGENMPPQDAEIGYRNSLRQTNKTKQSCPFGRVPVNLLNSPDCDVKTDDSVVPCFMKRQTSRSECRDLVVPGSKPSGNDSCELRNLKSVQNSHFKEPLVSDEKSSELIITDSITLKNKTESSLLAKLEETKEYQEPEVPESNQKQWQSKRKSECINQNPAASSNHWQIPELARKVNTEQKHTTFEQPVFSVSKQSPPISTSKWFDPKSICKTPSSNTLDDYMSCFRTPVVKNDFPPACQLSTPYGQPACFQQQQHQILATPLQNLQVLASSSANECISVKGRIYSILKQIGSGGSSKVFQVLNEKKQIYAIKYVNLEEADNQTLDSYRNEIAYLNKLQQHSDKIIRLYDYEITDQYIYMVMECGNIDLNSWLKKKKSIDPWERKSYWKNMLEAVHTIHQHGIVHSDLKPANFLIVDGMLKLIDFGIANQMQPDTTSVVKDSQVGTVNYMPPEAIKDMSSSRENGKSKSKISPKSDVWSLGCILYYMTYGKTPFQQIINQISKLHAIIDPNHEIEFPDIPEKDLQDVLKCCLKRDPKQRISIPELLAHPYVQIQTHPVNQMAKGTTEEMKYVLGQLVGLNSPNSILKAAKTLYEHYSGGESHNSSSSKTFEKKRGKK
Method: The human kinase Mps-1 phosphorylates a biotinylated substrate peptide. Detection of the phosphorylated product is achieved by time-resolved fluorescence resonance energy transfer (TR-FRET) from Europium-labelled anti-phospho-Serine/Threonine antibody as donor to streptavidin labelled with cross-linked allophycocyanin (SA-XLent) as acceptor. Compounds are tested for their inhibition of the kinase activity.
N-terminally GST-tagged human full length recombinant Mps-1 kinase (purchased from Invitrogen, Karslruhe, Germany, cat. no PV4071) was used. As substrate for the kinase reaction a biotinylated peptide of the amino-acid sequence […] (C-terminus in amide form, purchased from Biosynthan GmbH, Berlin) was used.
The concentration of Mps-1 in the assay was adjusted to the activity of the enzyme lot and was chosen appropriate to have the assay in the linear range, typical enzyme concentrations were in the range of about 1 nM (final conc. in the 5 μl assay volume).
The resulting mixture was incubated 1 h at 22° C. to allow the binding of the phosphorylated peptide to the anti-phospho(Ser/Thr)-Europium-antibody. Subsequently the amount of phosphorylated substrate was evaluated by measurement of the resonance energy transfer from the Europium-labelled anti-phospho(Ser/Thr) antibody to the Streptavidin-XLent. Therefore, the fluorescence emissions at 620 nm and 665 nm after excitation at 350 nm was measured in a Viewlux TR-FRET reader (PerkinElmer LAS, Rodgau-Jügesheim, Germany). The “blank-corrected normalized ratio” (a Viewlux specific readout, similar to the traditional ratio of the emissions at 665 nm and at 622 nm, in which blank and Eu-donor crosstalk are subtracted from the 665 nm signal before the ratio is calculated) was taken as the measure for the amount of phosphorylated substrate.

Structure (SMILES) | IC50 [nM]
CC(C)CNc1nc(-c2ccccc2O)cn2c(-c3ccc(C(=O)NC4CC4)cc3)cnc12 [Example 1-65, N-cyclopropyl-4-{6-(2-hydroxyphenyl)-8-[(2-methylpropyl)amino]imidazo[1,2-a]pyrazin-3-yl}benzamide] | 8.5
NCCCCNc1nc(-c2ccccc2)cn2c(-c3ccc(C(=O)NC4CC4)cc3)cnc12 [Example 2-67] | 7.2
Cc1cc(-c2cnc3c(NCCC(F)(F)F)nc(-c4cccc(CO)c4)cn23)ccc1C(=O)NC1CC1 [Example 1-122, N-cyclopropyl-4-{6-[3-(hydroxymethyl)phenyl]-8-[(3,3,3-trifluoropropyl)amino]imidazo[1,2-a]pyrazin-3-yl}-2-methyl-benzamide] | 11.9
Cc1ccccc1-c1cn2c(-c3ccc(C(=O)NC4CC4)cc3)cnc2c(NCC(C)C)n1 [Example 1-19, N-cyclopropyl-4-{6-(2-methylphenyl)-8-[(2-methylpropyl)amino]imidazo[1,2-a]pyrazin-3-yl}benzamide] | 1.5
O=C(NC1CC1)c1ccc(-c2cnc3c(NCCOCC(F)(F)F)nc(-c4ccccc4)cn23)cc1 [Example 2-88, N-cyclopropyl-4-(6-phenyl-8-{[2-(2,2,2-trifluoroethoxy)ethyl]amino}imidazo[1,2-a]pyrazin-3-yl)benzamide] | 3.6
Cc1cc(-c2cnc3c(NCC(C)(C)O)nc(-c4ccccc4)cn23)ccc1C(=O)NC1CC1 [Example 1-137, N-cyclopropyl-4-{8-[(2-hydroxy-2-methylpropyl)amino]-6-phenylimidazo[1,2-a]pyrazin-3-yl}-2-methylbenzamide] | 5.1
CC(C)(O)CNc1nc(-c2ccccc2CO)cn2c(-c3ccc(C(=O)NC4CC4)cc3)cnc12 [Example 1-132, N-cyclopropyl-4-{6-[2-(hydroxymethyl)phenyl]-8-[(2-hydroxy-2-methylpropyl)amino]imidazo[1,2-a]pyrazin-3-yl}benzamide] | 10.3
CC(C)CNc1nc(-c2ccc(S(=O)(=O)NC3CC3)cc2)cn2c(-c3ccc(C(=O)NC4CC4)cc3)cnc12 [Example 1-126, N-cyclopropyl-4-{6-[4-(cyclopropylsulfamoyl)phenyl]-8-[(2-methylpropyl)amino]imidazo[1,2-a]pyrazin-3-yl}benzamide] | 4.4
CC(C)CNc1nc(-c2ccc(OC(C)C)cc2)cn2c(-c3ccc(C(=O)NC4CC4)cc3)cnc12 [Example 1-58, N-cyclopropyl-4-{8-[(2-methylpropyl)amino]-6-[4-(propan-2-yloxy)phenyl]imidazo[1,2-a]pyrazin-3-yl}benzamide] | 27
CC(C)CNc1nc(-c2ccc(C(=O)NC3CC3)c(Cl)c2)cn2c(-c3ccc(C(=O)NC4CC4)cc3)cnc12 [Example 1-83, 2-chloro-N-cyclopropyl-4-{3-[4-(cyclopropyl-carbamoyl)phenyl]-8-[(2-methylpropyl)amino]imidazo[1,2-a]pyrazin-6-yl}benzamide] | 6.9
COc1cccc(-c2cn3c(-c4ccc(C(=O)NC5CC5)cc4)cnc3c(NCC(C)C)n2)c1F [Example 1-13, N-cyclopropyl-4-{6-(2-fluoro-3-methoxyphenyl)-8-[(2-methylpropyl)amino]imidazo[1,2-a]pyrazin-3-yl}benzamide] | 7
O=C(NC1CC1)c1ccc(-c2cnc3c(NCCC(F)(F)F)nc(-c4ccccc4CO)cn23)cc1Cl [Example 1-97, 2-chloro-N-cyclopropyl-4-{6-[2-(hydroxymethyl)phenyl]-8-[(3,3,3-trifluoropropyl)amino]imidazo[1,2-a]pyrazin-3-yl}benzamide] | 5.1
O=C(NC1CC1)c1ccc(-c2cnc3c(NCCc4nccs4)nc(-c4ccccc4)cn23)cc1 [Example 2-63, N-cyclopropyl-4-(6-phenyl-8-{[2-(1,3-thiazol-2-yl)ethyl]amino}imidazo[1,2-a]pyrazin-3-yl)benzamide] | 5.6
CC(C)CNc1nc(-c2ccc(Cl)cc2Cl)cn2c(-c3ccc(C(=O)NC4CC4)cc3)cnc12 [Example 1-87, N-cyclopropyl-4-{6-(2,4-dichlorophenyl)-8-[(2-methylpropyl)amino]imidazo[1,2-a]pyrazin-3-yl}benzamide] | 6.7
CC(C)CNc1nc(-c2ccc(Oc3ccccc3)cc2)cn2c(-c3ccc(C(=O)NC4CC4)cc3)cnc12 [Example 1-47, N-cyclopropyl-4-{8-[(2-methylpropyl)amino]-6-(4-phenoxyphenyl)imidazo[1,2-a]pyrazin-3-yl}benzamide] | 78.9
NCCNc1nc(-c2ccccc2)cn2c(-c3ccc(C(=O)NC4CC4)cc3)cnc12 [Example 2-69, 4-{8-[(2-Aminoethyl)amino]-6-phenylimidazo[1,2-a]pyrazin-3-yl}-N-cyclopropylbenzamide] | 54.8
CN(C)CCNc1nc(-c2ccccc2)cn2c(-c3ccc(C(=O)NC4CC4)cc3)cnc12 [Example 2-34, N-cyclopropyl-4-(8-{[2-(dimethylamino)ethyl]amino}-6-phenylimidazo[1,2-a]pyrazin-3-yl)benzamide] | 35.7
CC(C)(O)CNc1nc(C2=CCOCC2)cn2c(-c3ccc(C(=O)NC4CC4)c(Cl)c3)cnc12 [Example 1-102, 2-chloro-N-cyclopropyl-4-{6-(3,6-dihydro-2H-pyran-4-yl)-8-[(2-hydroxy-2-methylpropyl)amino]imidazo[1,2-a]pyrazin-3-yl}benzamide] | 99
CC(C)CNc1nc(-c2ccccc2)c(F)n2c(-c3ccc(C(=O)NC4CC4)cc3)cnc12 [Example 5-1, N-cyclopropyl-4-{5-fluoro-8-[(2-methylpropyl)amino]-6-phenylimidazo[1,2-a]pyrazin-3-yl}benzamide] | 67
CC(C)CNc1nc(-c2cccc(NS(C)(=O)=O)c2)cn2c(-c3ccc(C(=O)NC4CC4)cc3)cnc12 [Example 1-15, N-cyclopropyl-4-(8-[(2-methylpropyl)amino]-6-{3-[(methylsulfonyl)amino]phenyl}imidazo [1,2-a]pyrazin-3-yl) benzamide] | 1.8
CN(C)c1ccc(-c2cn3c(-c4ccc(C(=O)NC5CC5)c(Cl)c4)cnc3c(NCCC(F)(F)F)n2)cc1 [Example 1-96, 2-chloro-N-cyclopropyl-4-{6-[4-(dimethylamino)phenyl]-8-[(3,3,3-trifluoropropyl)amino]imidazo[1,2-a]pyrazin-3-yl}benzamide] | 22.6
CC(C)CNc1nc(-c2ccc3c(c2)OCCO3)cn2c(-c3ccc(C(=O)NC4CC4)cc3)cnc12 [Example 1-3, N-cyclopropyl-4-{6-(2,3-dihydro-1,4-benzodioxin-6-yl)-8-[(2-methyl-propyl)amino]imidazo [1,2-a]pyrazin-3-yl} benzamide] | 18.4
CC(C)CNc1nc(-c2ccc(C(=O)NC3CC3)cc2)cn2c(-c3ccc(C(=O)NC4CC4)cc3)cnc12 [Example 1-30, 4,4′-{8-[(2-methylpropyl)amino]imidazo[1,2-a]pyrazine-3,6-diyl}bis (N-cyclopropylbenzamide)] | 1.5
CNC(=O)c1ccc(-c2cn3c(-c4ccc(C(=O)NC5CC5)cc4)cnc3c(NCC(C)C)n2)cc1Cl [Example 1-82, 2-chloro-4-{3-[4-(cyclopropylcarbamoyl)phenyl]-8-[(2-methylpropyl)amino]imidazo[1,2-a]pyrazin-6-yl}-N-methyl benzamide] | 1.6
